The values below come from patent US20250236608A1, “EGFR INHIBITORS” (Blueprint Medicines Corporation, priority 2022, published 2025).

Assay [1] concerns the target pEGFR (Tyr1068) in PC-9 cells (Ex19Del) (Homo sapiens (Human), UniProt P00533, DEL746-750). As to the kind of experiment: PC-9 pEGFR AlphaLISA assay. Type of assay: cell-based. The following applies: 4 hours incubation, p-EGFR (Tyr1068) AlphaLISA, read-out: Ext pEGFR_PC-9 Ex19Del IC50. In short, it runs like this: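 Cells seeded in phenol-free DMEM with 10% FBS adhered overnight at 37° C./5% CO2, then were exposed for 4 hours to a 4-fold, 10-point compound dilution series. After lysis, phospho-EGFR was read by AlphaLISA SureFire Ultra, and IC50 was fitted from percent inhibition versus log concentration.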
A general note: In Alpha technology, singlet oxygen from a donor bead excites a nearby acceptor bead.

In the next assay the target is EGFR (d746-750) (Homo sapiens (Human), UniProt P00533, DEL746-750). Kind of assay: Biochemical EGFR inhibition assay, EGFR (d746-750). The following applies: Caliper mobility shift; 1.0 mM ATP or ATP Km; read-out: Enz EGFR_Exon19-del746-750 IC50.
The target of the next assay is EGFR L858R (Homo sapiens (Human), UniProt P00533, L858R). Kind of assay: Biochemical EGFR inhibition assay, EGFR L858R. The settings on record: Caliper mobility shift; 1.0 mM ATP or ATP Km; read-out: Enz EGFR_L858R IC50.
EGFR L858R, sequence (P00533 25-1210 L858R): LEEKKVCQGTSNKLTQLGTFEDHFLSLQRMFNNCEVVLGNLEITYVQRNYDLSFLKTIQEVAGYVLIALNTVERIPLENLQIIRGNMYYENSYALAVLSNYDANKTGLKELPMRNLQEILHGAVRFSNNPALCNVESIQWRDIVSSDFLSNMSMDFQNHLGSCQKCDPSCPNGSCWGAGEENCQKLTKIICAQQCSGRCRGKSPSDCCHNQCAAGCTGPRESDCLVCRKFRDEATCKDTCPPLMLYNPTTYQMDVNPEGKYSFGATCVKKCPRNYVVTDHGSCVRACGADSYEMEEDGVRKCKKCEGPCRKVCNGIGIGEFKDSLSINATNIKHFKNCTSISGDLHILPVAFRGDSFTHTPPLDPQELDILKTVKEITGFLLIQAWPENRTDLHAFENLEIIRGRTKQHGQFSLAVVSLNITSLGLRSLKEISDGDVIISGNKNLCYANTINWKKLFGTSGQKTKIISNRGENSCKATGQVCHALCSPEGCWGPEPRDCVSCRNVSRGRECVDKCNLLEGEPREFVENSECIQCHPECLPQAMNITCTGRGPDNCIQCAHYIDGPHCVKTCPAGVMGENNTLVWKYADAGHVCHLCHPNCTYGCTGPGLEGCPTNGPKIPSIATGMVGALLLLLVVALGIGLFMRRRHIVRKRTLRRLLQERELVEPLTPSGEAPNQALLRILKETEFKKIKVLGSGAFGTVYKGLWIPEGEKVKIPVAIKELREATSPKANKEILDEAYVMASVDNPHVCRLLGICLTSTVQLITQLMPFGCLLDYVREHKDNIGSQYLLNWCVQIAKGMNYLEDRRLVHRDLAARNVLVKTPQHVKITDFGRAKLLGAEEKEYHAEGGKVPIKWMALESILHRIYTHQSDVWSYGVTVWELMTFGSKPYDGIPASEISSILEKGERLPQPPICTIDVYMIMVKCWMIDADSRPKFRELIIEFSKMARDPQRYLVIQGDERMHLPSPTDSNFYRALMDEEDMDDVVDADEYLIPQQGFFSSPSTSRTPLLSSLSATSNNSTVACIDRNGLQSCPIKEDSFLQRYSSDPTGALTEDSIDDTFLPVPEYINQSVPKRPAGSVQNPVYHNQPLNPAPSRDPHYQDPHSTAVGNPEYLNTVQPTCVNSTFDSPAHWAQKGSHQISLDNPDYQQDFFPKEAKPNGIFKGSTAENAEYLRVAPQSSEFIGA

pEGFR (Tyr1068) in PC-9 cells (Ex19Del), sequence (P00533 other isoform, or with tags, fused parts or gaps del 746-750): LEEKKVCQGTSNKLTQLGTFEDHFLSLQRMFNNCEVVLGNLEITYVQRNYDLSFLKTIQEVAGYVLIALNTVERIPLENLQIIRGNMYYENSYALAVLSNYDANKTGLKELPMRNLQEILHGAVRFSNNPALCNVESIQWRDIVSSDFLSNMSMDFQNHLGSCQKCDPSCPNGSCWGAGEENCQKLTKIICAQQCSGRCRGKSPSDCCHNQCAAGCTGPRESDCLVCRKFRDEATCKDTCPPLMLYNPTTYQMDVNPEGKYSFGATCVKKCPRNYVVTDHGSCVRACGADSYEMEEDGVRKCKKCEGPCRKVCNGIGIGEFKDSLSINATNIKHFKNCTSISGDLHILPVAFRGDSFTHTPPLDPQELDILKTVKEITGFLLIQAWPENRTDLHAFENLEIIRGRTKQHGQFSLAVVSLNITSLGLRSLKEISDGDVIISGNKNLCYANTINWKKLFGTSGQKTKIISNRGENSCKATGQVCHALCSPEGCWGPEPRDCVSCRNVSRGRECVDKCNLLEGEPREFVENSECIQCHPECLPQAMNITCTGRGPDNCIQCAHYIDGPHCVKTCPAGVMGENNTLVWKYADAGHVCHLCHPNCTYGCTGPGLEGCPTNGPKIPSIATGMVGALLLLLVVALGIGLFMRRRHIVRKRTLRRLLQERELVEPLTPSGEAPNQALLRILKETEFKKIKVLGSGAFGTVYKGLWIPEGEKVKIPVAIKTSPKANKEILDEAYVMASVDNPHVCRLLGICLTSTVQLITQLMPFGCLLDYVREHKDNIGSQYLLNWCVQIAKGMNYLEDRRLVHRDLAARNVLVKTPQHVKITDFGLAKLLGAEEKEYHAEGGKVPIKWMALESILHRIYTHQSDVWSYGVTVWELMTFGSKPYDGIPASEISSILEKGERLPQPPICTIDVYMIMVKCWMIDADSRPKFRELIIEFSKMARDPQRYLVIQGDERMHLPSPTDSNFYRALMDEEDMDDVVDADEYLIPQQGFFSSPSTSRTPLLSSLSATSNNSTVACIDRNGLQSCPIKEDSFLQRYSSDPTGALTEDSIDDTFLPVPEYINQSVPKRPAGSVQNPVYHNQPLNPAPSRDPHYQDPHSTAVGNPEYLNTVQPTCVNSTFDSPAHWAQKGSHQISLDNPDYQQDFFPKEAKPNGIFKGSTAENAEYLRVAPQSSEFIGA
EGFR (d746-750), sequence (P00533 other isoform, or with tags, fused parts or gaps del 1-694/del 746-750 limits assumed): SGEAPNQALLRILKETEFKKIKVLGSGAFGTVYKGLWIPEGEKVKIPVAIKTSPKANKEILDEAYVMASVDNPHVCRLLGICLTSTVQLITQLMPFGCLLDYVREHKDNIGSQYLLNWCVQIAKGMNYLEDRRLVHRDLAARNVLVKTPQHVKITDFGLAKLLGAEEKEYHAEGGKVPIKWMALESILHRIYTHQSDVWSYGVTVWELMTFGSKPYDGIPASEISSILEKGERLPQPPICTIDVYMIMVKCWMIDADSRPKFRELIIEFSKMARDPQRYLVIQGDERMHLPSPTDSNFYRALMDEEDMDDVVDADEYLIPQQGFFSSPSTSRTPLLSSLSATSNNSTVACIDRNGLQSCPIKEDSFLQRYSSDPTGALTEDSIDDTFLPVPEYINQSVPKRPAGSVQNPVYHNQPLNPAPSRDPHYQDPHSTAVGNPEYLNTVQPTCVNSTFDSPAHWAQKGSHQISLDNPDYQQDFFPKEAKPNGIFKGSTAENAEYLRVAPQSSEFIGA

In the case of `COc1cc2ncnc(-c3cn(C)nc3-c3ccccc3F)c2cc1NC(=O)[C@]12C[C@H]1CN(C)C2` (single isomer, unassigned) [Example 255, (1R,5R)—N-(4-(3-(2-fluorophenyl)-1-methyl-1H-pyrazol-4-yl)-7-methoxyquinazolin-6-yl)-3-methyl-3-azabicyclo[3.1.0]hexane-1-carboxamide or (1S,5S)—N-(4-(3-(2-fluorophenyl)-1-methyl-1H-pyrazol-4-yl)-7-methoxyquinazolin-6-yl)-3-methyl-3-azabicyclo[3.1.0]hexane-1-carboxamide], the IC50 (commonly the concentration needed to halve the response being measured) in assay [1] was found to be 3.8 nM; at EGFR (d746-750) it was 1.8 nM; on EGFR L858R, 2.7 nM.
With `CCOc1cc2ncnc(-c3cn(C)nc3-c3ccccc3)c2cc1NC(=O)[C@@]12C[C@@H]1CN(C)C2` (single isomer, unassigned) [Example 256, (1S,5S)—N-(7-ethoxy-4-(1-methyl-3-phenyl-1H-pyrazol-4-yl)quinazolin-6-yl)-3-methyl-3-azabicyclo[3.1.0]hexane-1-carboxamide or (1R,5R)—N-(7-ethoxy-4-(1-methyl-3-phenyl-1H-pyrazol-4-yl)quinazolin-6-yl)-3-methyl-3-azabicyclo[3.1.0]hexane-1-carboxamide], the IC50 is 2 nM in assay [1], 0.4 nM at EGFR (d746-750) and 0.8 nM on EGFR L858R.
The corresponding values for `CCOc1cc2ncnc(-c3cn(C)nc3-c3ccccc3)c2cc1NC(=O)[C@]12C[C@H]1CN(C)C2` (single isomer, unassigned) [Example 257, (1R,5R)—N-(7-ethoxy-4-(1-methyl-3-phenyl-1H-pyrazol-4-yl)quinazolin-6-yl)-3-methyl-3-azabicyclo[3.1.0]hexane-1-carboxamide or (1S,5S)—N-(7-ethoxy-4-(1-methyl-3-phenyl-1H-pyrazol-4-yl)quinazolin-6-yl)-3-methyl-3-azabicyclo[3.1.0]hexane-1-carboxamide] are 4.8 nM, 0.9 nM and 1.5 nM.
Taken in the same sequence, the figures for `COc1cc2ncnc(-c3cn(C)nc3-c3ccccc3)c2cc1NC(=O)[C@]1(C)CCCO1` (single isomer, unassigned) [Example 258, (S)—N-(7-methoxy-4-(1-methyl-3-phenyl-1H-pyrazol-4-yl)quinazolin-6-yl)-2-methyltetrahydrofuran-2-carboxamide or (R)—N-(7-methoxy-4-(1-methyl-3-phenyl-1H-pyrazol-4-yl)quinazolin-6-yl)-2-methyltetrahydrofuran-2-carboxamide] were 4.2 nM, 0.9 nM and 3.8 nM.
Taken in the same sequence, the figures for `COc1cc2ncnc(-c3cn(C)nc3-c3ccccc3)c2cc1NC(=O)[C@@]1(C)CCCO1` (single isomer, unassigned) [Example 259, (R)—N-(7-methoxy-4-(1-methyl-3-phenyl-1H-pyrazol-4-yl)quinazolin-6-yl)-2-methyltetrahydrofuran-2-carboxamide or (S)—N-(7-methoxy-4-(1-methyl-3-phenyl-1H-pyrazol-4-yl)quinazolin-6-yl)-2-methyltetrahydrofuran-2-carboxamide] were 4.2 nM, 1.1 nM and 2.6 nM.
For `COc1cc2ncnc(-c3cn(C)nc3-c3ccccc3)c2cc1NC(=O)[C@]12COC[C@H]1C2` (single isomer, unassigned) [Example 260, (1S,5S)—N-(7-methoxy-4-(1-methyl-3-phenyl-1H-pyrazol-4-yl)quinazolin-6-yl)-5-methyl-3-oxabicyclo[3.1.0]hexane-1-carboxamide or (1R,5R)—N-(7-methoxy-4-(1-methyl-3-phenyl-1H-pyrazol-4-yl)quinazolin-6-yl)-3-oxabicyclo[3.1.0]hexane-1-carboxamide], the results for the IC50 (in assay [1]; at EGFR (d746-750); on EGFR L858R) were 3.2 nM, 1.2 nM and 6.8 nM, respectively.
The corresponding values for `COc1cc2ncnc(-c3cn(C)nc3-c3ccccc3)c2cc1NC(=O)[C@@]12COC[C@@H]1C2` (single isomer, unassigned) [Example 261, (1R,5R)—N-(7-methoxy-4-(1-methyl-3-phenyl-1H-pyrazol-4-yl)quinazolin-6-yl)-5-methyl-3-oxabicyclo[3.1.0]hexane-1-carboxamide or (1S,5S)—N-(7-methoxy-4-(1-methyl-3-phenyl-1H-pyrazol-4-yl)quinazolin-6-yl)-3-oxabicyclo[3.1.0]hexane-1-carboxamide] are 6.1 nM, 1.3 nM and 2.8 nM.
Taken in the same sequence, the figures for `CCOc1cc2ncnc(-c3cn(C)nc3-c3ccc(F)cc3)c2nc1NC(=O)[C@@]12C[C@@H]1CN(C)C2` (single isomer, unassigned) [Example 375, (1S,5S)—N-(7-ethoxy-4-(3-(4-fluorophenyl)-1-methyl-1H-pyrazol-4-yl)pyrido[3,2-d]pyrimidin-6-yl)-3-methyl-3-azabicyclo[3.1.0]hexane-1-carboxamide or (1R,5R)—N-(7-ethoxy-4-(3-(4-fluorophenyl)-1-methyl-1H-pyrazol-4-yl)pyrido[3,2-d]pyrimidin-6-yl)-3-methyl-3-azabicyclo[3.1.0]hexane-1-carboxamide] were 2.5 nM, 0.9 nM and 2.4 nM.
For the compound `CCOc1cc2ncnc(-c3cn(C)nc3-c3ccc(F)cc3)c2nc1NC(=O)[C@]12C[C@H]1CN(C)C2` (single isomer, unassigned) [Example 376, (1R,5R)—N-(7-ethoxy-4-(3-(4-fluorophenyl)-1-methyl-1H-pyrazol-4-yl)pyrido[3,2-d]pyrimidin-6-yl)-3-methyl-3-azabicyclo[3.1.0]hexane-1-carboxamide or (1S,5S)—N-(7-ethoxy-4-(3-(4-fluorophenyl)-1-methyl-1H-pyrazol-4-yl)pyrido[3,2-d]pyrimidin-6-yl)-3-methyl-3-azabicyclo[3.1.0]hexane-1-carboxamide], the results for the IC50 (in assay [1]; at EGFR (d746-750); on EGFR L858R) were 2.7 nM, 0.4 nM and 1.3 nM, respectively.
As for `CCOc1cc2ncnc(-c3cn(C)nc3-c3ccccc3)c2nc1NC(=O)[C@@]12C[C@@H]1CN(C)C2` (single isomer, unassigned) [Example 377, (1S,5S)—N-(7-ethoxy-4-(1-methyl-3-phenyl-1H-pyrazol-4-yl)pyrido[3,2-d]pyrimidin-6-yl)-3-methyl-3-azabicyclo[3.1.0]hexane-1-carboxamide or (1R,5R)—N-(7-ethoxy-4-(1-methyl-3-phenyl-1H-pyrazol-4-yl)pyrido[3,2-d]pyrimidin-6-yl)-3-methyl-3-azabicyclo[3.1.0]hexane-1-carboxamide], the figures for the IC50 (in assay [1]; at EGFR (d746-750); at EGFR L858R) were 2.8 nM, 1.3 nM and 2.2 nM, respectively.
For the compound `CCOc1cc2ncnc(-c3cn(C)nc3-c3ccccc3)c2nc1NC(=O)[C@]12C[C@H]1CN(C)C2` (single isomer, unassigned) [Example 378, (1R,5R)—N-(7-ethoxy-4-(1-methyl-3-phenyl-1H-pyrazol-4-yl)pyrido[3,2-d]pyrimidin-6-yl)-3-methyl-3-azabicyclo[3.1.0]hexane-1-carboxamide or (1S,5S)—N-(7-ethoxy-4-(1-methyl-3-phenyl-1H-pyrazol-4-yl)pyrido[3,2-d]pyrimidin-6-yl)-3-methyl-3-azabicyclo[3.1.0]hexane-1-carboxamide], the IC50 was determined as 1.2 nM in assay [1], 0.7 nM at EGFR (d746-750) and 1.3 nM on EGFR L858R.
Taken in the same sequence, the figures for `CCOc1cc2ncnc(-c3cn(C)nc3-c3ccccc3)c2nc1NC(=O)[C@]12COC[C@H]1C2` (single isomer, unassigned) [Example 379, (1S,5S)—N-(7-ethoxy-4-(1-methyl-3-phenyl-1H-pyrazol-4-yl)pyrido[3,2-d]pyrimidin-6-yl)-3-oxabicyclo[3.1.0]hexane-1-carboxamide or (1R,5R)—N-(7-ethoxy-4-(1-methyl-3-phenyl-1H-pyrazol-4-yl)pyrido[3,2-d]pyrimidin-6-yl)-3-oxabicyclo[3.1.0]hexane-1-carboxamide] were 0.8 nM, 0.7 nM and 2.5 nM.
The corresponding values for `CCOc1cc2ncnc(-c3cn(C)nc3-c3ccccc3)c2nc1NC(=O)[C@@]12COC[C@@H]1C2` (single isomer, unassigned) [Example 380, (1R,5R)—N-(7-ethoxy-4-(1-methyl-3-phenyl-1H-pyrazol-4-yl)pyrido[3,2-d]pyrimidin-6-yl)-3-oxabicyclo[3.1.0]hexane-1-carboxamide or (1S,5S)—N-(7-ethoxy-4-(1-methyl-3-phenyl-1H-pyrazol-4-yl)pyrido[3,2-d]pyrimidin-6-yl)-3-oxabicyclo[3.1.0]hexane-1-carboxamide] are 1.4 nM, 0.7 nM and 2.5 nM.
Consider `COc1cc2ncnc(-c3cn(C)nc3-c3ccc(F)cc3)c2nc1NC(=O)[C@]12COC[C@H]1C2` (single isomer, unassigned) [Example 381, (1S,5S)—N-(4-(3-(4-fluorophenyl)-1-methyl-1H-pyrazol-4-yl)-7-methoxypyrido[3,2-d]pyrimidin-6-yl)-3-oxabicyclo[3.1.0]hexane-1-carboxamide or (1R,5R)—N-(4-(3-(4-fluorophenyl)-1-methyl-1H-pyrazol-4-yl)-7-methoxypyrido[3,2-d]pyrimidin-6-yl)-3-oxabicyclo[3.1.0]hexane-1-carboxamide], for which the values for the 50% inhibitory concentration (IC50) (in assay [1]; at EGFR (d746-750); on EGFR L858R) were 1.4 nM, 0.7 nM and 1.9 nM, respectively.
